The values below are quoted from earlier work in paper PMC9370779, “Traditional Medicinal Uses, Phytochemistry, Biological Properties, and Health Applications of Vitex sp” (Plants, 2022).

Data set [1] has as its target dopamine-D2-receptor. Details: method as in PMID 10865453.
In data set [2] the test system is cervical cancer (HeLa) cell. Details: method as in PMID 19156599. Conditions: range given for both compounds together; read-out: inhibition of HeLa cell proliferation, IC50.
Data set [3] concerns DOR. Details: method as in PMID 21163339.
Data set [4] deals with MOR. Details: method as in PMID 21163339.
For data set [5], the system named is severe myelogenous leukemia tumor (K562) cells. Details: method as in doi:10.1016/j.jscs.2021.101298. The note with it: read-out: cytotoxicity against K562 cells, IC50 value.
For data set [6], the system named is human liver carcinoma (HepG2) cell lines. Details: method as in PMID 27118321.
The test system of data set [7] is RAW 264.7 macrophages. Details: method as in PMID 25245917. The note with it: at 40 μM.
Data set [8] deals with pancreatic cancer (PANC-01).
The test system of data set [9] is esophageal carcinoma (Eca-109).
The subject of data set [10] is gastric cancer (SGC-7901).
For data set [11], the system named is leukemia (HL-60).
The subject of data set [12] is LPS-induced NO production in murine microglial cell BV-2 cells. Details: method as in PMID 31448638. Conditions: read-out: inhibition of LPS-stimulated NO production, IC50.
The test system of data set [13] is BV-2 cells. Details: method as in PMID 31448638.
Data set [14] relates to NO production. Details: method as in PMID 25245917. The note with it: at 80 μM, the highest concentration tested.

“Also recorded” adds a separate entry of the source.

Consider `C=CC(C)(O)CCC1=C(C)C(OC(C)=O)C(OC(C)=O)C2C(C)(C)CCCC12C` (stereo not drawn) [Compound 52, 6β,7β-diacetoxy-13-hydroxy-labda-8,14-diene], for which, in [1], the “affinity to the dopamine-D2-receptor, IC50 value” is on record as “It showed strong affinity to the dopamine-D2-receptor with IC50 value of 15 μg/mL”.

`CC(=O)O[C@H]1CC[C@@]2(C)[C@@H](CC[C@@H](C)[C@]2(O)CCc2ccoc2)C1(C)C` [Compound 56, Vitetrifolin H]: the IC50 in data set [2] is 4 to 28 µM. Take `CC(=O)O[C@@H]1C[C@@H](C)[C@](O)(CCC2=CC(=O)OC2O)[C@@]2(C)CCCC(C)(C)[C@H]12` (some centres unmarked) [Compound 58, Viteagnusin I]: the “activity on opioid receptor assay DOR” value in data set [3] was “No activity was shown on opioid receptor assays DOR and MOR”. The “activity on opioid receptor assay MOR” value in data set [4] is “No activity was shown on opioid receptor assays DOR and MOR”. As for `CC(=O)OC1CC(C)C2(CCC3(COC(=O)C3)O2)C2(C)CCCC(C)(C)C12` (centres unmarked) [Compound 99, 9-epivitexnegundin], the IC50 in data set [5] is greater than 100 µM.

As to `COc1cc(C2c3c(cc(OC)c(O)c3OC)C=C(C=O)C2COC2OC(CO)C(O)C(O)C2O)ccc1O` (centres unmarked) [Compound 130, vitexnegheteroin F], the “cytotoxic activity against HepG2 cell lines” value in [6] is “moderate cytotoxic activity; also recorded: Exhibited moderate cytotoxic activities against human liver carcinoma (HepG2) cell lines”.

For the compound `CC1(C)CC[C@@]23CC[C@@]4(C)[C@]5(C)CC[C@H]6C(C)(C)[C@@H](O)[C@H](O)C[C@]6(C)[C@H]5CC(=O)[C@]4(OC2=O)[C@@H]3C1` [Compound 145, cannabifolin E], in [7], the “cell viability of RAW 264.7 macrophages” value is less than 70%. Regarding `CC1C(C=O)CCC2(C(=O)O)CCC3(C)C(=CCC4C5(C)CCC(O)C(C)(C)C5CCC43C)C12` (stereo not drawn) [Compound 147, 3β-hydroxy-30-al-urs-12-en-28-oic acid], the “cytotoxic activity against PANC-01” value in [8] is “Exhibited cytotoxic activity against HL-60, SGC-7901, PANC-01, and Eca-109 cell lines”. Also, in data set [9], the “cytotoxic activity against Eca-109” value is “Exhibited cytotoxic activity against HL-60, SGC-7901, PANC-01, and Eca-109 cell lines”. Also, the “cytotoxic activity against SGC-7901” value in data set [10] is “Exhibited cytotoxic activity against HL-60, SGC-7901, PANC-01, and Eca-109 cell lines”. Besides, the “cytotoxic activity against HL-60” value in data set [11] is “Exhibited cytotoxic activity against HL-60, SGC-7901, PANC-01, and Eca-109 cell lines”. As to `O=C(O)CC1CCC(=O)C1CC=CCCOC1OC(COC(=O)C=Cc2ccc(O)c(O)c2)C(O)C(O)C1O` (centres unmarked) [Compound 159, 12-hydroxyjasmonic acid (6-O-caffeoyl)glucoside], the IC50 in [12] is greater than 100 µM. The “cytotoxic effect on BV-2 cells” value in data set [13] is “no cytotoxic effect; also recorded: no effect of cytotoxicity”. In the case of cannabifolin F [Compound 146], the “inhibition of NO production” value in data set [14] is listed as less than 50%.
